Measurements published in patent publication US20010023259A1, “Conjugated fatty acids and related compounds” (Natural ASA, priority 1999, published 2001).

Test system: Spirulina platensis (Arthrospira sp.) PCC8005
Assay: Incubation of fatty acid substrates with S. platensis; fatty acid composition of extracted lipids by GC
Assay type: cell-based
Conditions: for 6,9,11 - 18:3 (desaturated metabolite), fatty acid composition of lipids extracted from S. platensis / 9,11 - 18:2 (substrate taken up), fatty acid composition of lipids extracted from S. platensis / Amount, total weight of lipid in extract / linoleic acid 18:2, fatty acid composition of lipids extracted from S. platensis / linolenic acid 18:3 (n-6), fatty acid composition of lipids extracted from S. platensis / oleic acid 18:1, fatty acid composition of lipids extracted from S. platensis / palmitic acid 16:0, fatty acid composition of lipids extracted from S. platensis / palmitoleic acid 16:1, fatty acid composition of lipids extracted from S. platensis / stearic acid 18:0, fatty acid composition of lipids extracted from S. platensis: incubation with added 9-cis,11-trans-octadecadienoic acid
Description: Spirulina platensis (Arthrospira sp.) PCC8005 was grown in Zabrouk's medium in 50 ml batch culture in 100 ml erlenmeyer flasks at 30° C. with illumination of 50 μmol photons m^-2 […]. Cultures were harvested following 5 days growth by centrifugation at 40,000 g in a […] rotor in a Beckman Avanti centrifuge 20 minutes, cooled rotor @4° C. The algal pellet was carefully resuspended in fresh Zabrouk's medium under aseptic conditions. Initial time-course experiments were carried out by resuspending the algal pellet in 50 ml fresh medium, which was then divided into 10 ml aliquots, each containing 0.5 ml of 1.8mM ammonium fatty acid substrate and incubating under the above conditions. Control cultures incubated without linoleate were also set up. […] The algal pellet was washed four times in 50 ml freshly drawn MilliQ water and then freeze dried prior to analyses. In later experiments where bulk material was required for a more detailed analysis of the metabolite produced, 4×50 ml cultures were grown and harvested as above. […] Following this incubation the algal material was pelleted, washed and freeze dried as described above. […] The latter were converted to the picolinyl ester derivatives by the procedure of Balazy and Nies, Biomed. Environ. […] The temperature of both the injector and detector was 250° C. Hydrogen was the carrier gas. The analyses were performed with a column (fused silica capillary) coated with carbowax (Chrompack UK Ltd, London, 30 m×[…] i.d.). The oven temperature was programmed from 170 to 220° C. at 4° C./min.

SMILES: CCCCCC#CCC=CCCCCCCCC(=O)O [Crepenynic acid, octadeca-9-en-12-ynoic acid]
- C20 homologue formed by chain elongation in the total fatty acids (96 hours incubation): detected
- desaturation in position 6 by S. platensis (substrate added exogenously): converted to a dehydro-metabolite
- incorporation into the lipids of S. platensis (substrate added exogenously): taken up

SMILES: CCCCC/C=C\C=C\CCCCCCCCC(=O)O [10-t,12-c-octadecadienoic acid]
- metabolite formed, share of the conjugated acids (96 hours incubation): 18 % of the conjugated acids
- metabolite formed, share of the total fatty acids (96 hours incubation, GC retention time expected for 6-c,10-t,12-c-octadecatrienoic acid): 6.4 % of the total fatty acids
- incorporation into the lipids of S. platensis (substrate added exogenously): rapidly incorporated

SMILES: CCCCCC/C=C/C=C\CCCCCCCC(=O)O [CLA, 9-cis,11-trans-octadecadienoic acid]
- recovered CLA isomer converted to the desaturated metabolite (after 24 hours): 13%
- compound taken up from the surrounding medium, share of lipid (at 24 hrs): 27.8 % of lipid
- time at which plateau level of the 6,9,11 tri-unsaturated fatty acid is attained (conversion of the di-unsaturated compound): about 72 hours
- change of relative proportion of oleate with time (extracts incubated with the CLA isomer, 0-96 h): increased four fold
- 6,9,11 - 18:3 (desaturated metabolite), fatty acid composition of lipids extracted from S. platensis (0h): 0.0 wt %
- 9,11 - 18:2 (substrate taken up), fatty acid composition of lipids extracted from S. platensis (0h): 0.0 wt %
- Amount, total weight of lipid in extract (0h): 85.3 µg
- linoleic acid 18:2, fatty acid composition of lipids extracted from S. platensis (0h): 11.7 wt %
- linolenic acid 18:3 (n-6), fatty acid composition of lipids extracted from S. platensis (0h): 32.2 wt %
- oleic acid 18:1, fatty acid composition of lipids extracted from S. platensis (0h): 4.9 wt %
- palmitic acid 16:0, fatty acid composition of lipids extracted from S. platensis (0h): 42.0 wt %
- palmitoleic acid 16:1, fatty acid composition of lipids extracted from S. platensis (0h): 6.5 wt %
- stearic acid 18:0, fatty acid composition of lipids extracted from S. platensis (0h): 2.6 wt %
- 6,9,11 - 18:3 (desaturated metabolite), fatty acid composition of lipids extracted from S. platensis (24h): 4.1 wt %
- 9,11 - 18:2 (substrate taken up), fatty acid composition of lipids extracted from S. platensis (24h): 27.8 wt %
- Amount, total weight of lipid in extract (24h): 170.3 µg
- linoleic acid 18:2, fatty acid composition of lipids extracted from S. platensis (24h): 8.2 wt %
- linolenic acid 18:3 (n-6), fatty acid composition of lipids extracted from S. platensis (24h): 19.5 wt %
- oleic acid 18:1, fatty acid composition of lipids extracted from S. platensis (24h): 4.0 wt %
- palmitic acid 16:0, fatty acid composition of lipids extracted from S. platensis (24h): 30.7 wt %
- palmitoleic acid 16:1, fatty acid composition of lipids extracted from S. platensis (24h): 4.7 wt %
- stearic acid 18:0, fatty acid composition of lipids extracted from S. platensis (24h): 0.9 wt %
- 6,9,11 - 18:3 (desaturated metabolite), fatty acid composition of lipids extracted from S. platensis (48h): 5.1 wt %
- 9,11 - 18:2 (substrate taken up), fatty acid composition of lipids extracted from S. platensis (48h): 21.2 wt %
- Amount, total weight of lipid in extract (48h): 188.3 µg
- linoleic acid 18:2, fatty acid composition of lipids extracted from S. platensis (48h): 6.9 wt %
- linolenic acid 18:3 (n-6), fatty acid composition of lipids extracted from S. platensis (48h): 19.0 wt %
- oleic acid 18:1, fatty acid composition of lipids extracted from S. platensis (48h): 8.6 wt %
- palmitic acid 16:0, fatty acid composition of lipids extracted from S. platensis (48h): 32.7 wt %
- palmitoleic acid 16:1, fatty acid composition of lipids extracted from S. platensis (48h): 5.3 wt %
- stearic acid 18:0, fatty acid composition of lipids extracted from S. platensis (48h): 1.2 wt %
- 6,9,11 - 18:3 (desaturated metabolite), fatty acid composition of lipids extracted from S. platensis (72h): 5.7 wt %
- 9,11 - 18:2 (substrate taken up), fatty acid composition of lipids extracted from S. platensis (72h): 16.2 wt %
- Amount, total weight of lipid in extract (72h): 211.8 µg
- linoleic acid 18:2, fatty acid composition of lipids extracted from S. platensis (72h): 4.9 wt %
- linolenic acid 18:3 (n-6), fatty acid composition of lipids extracted from S. platensis (72h): 16.5 wt %
- oleic acid 18:1, fatty acid composition of lipids extracted from S. platensis (72h): 15.4 wt %
- palmitic acid 16:0, fatty acid composition of lipids extracted from S. platensis (72h): 34.3 wt %
- palmitoleic acid 16:1, fatty acid composition of lipids extracted from S. platensis (72h): 5.4 wt %
- stearic acid 18:0, fatty acid composition of lipids extracted from S. platensis (72h): 1.7 wt %
- 6,9,11 - 18:3 (desaturated metabolite), fatty acid composition of lipids extracted from S. platensis (96h): 5.8 wt %
- 9,11 - 18:2 (substrate taken up), fatty acid composition of lipids extracted from S. platensis (96h): 10.5 wt %
- Amount, total weight of lipid in extract (96h): 166.2 µg
- linoleic acid 18:2, fatty acid composition of lipids extracted from S. platensis (96h): 3.9 wt %
- linolenic acid 18:3 (n-6), fatty acid composition of lipids extracted from S. platensis (96h): 15.1 wt %
- oleic acid 18:1, fatty acid composition of lipids extracted from S. platensis (96h): 21.6 wt %
- palmitic acid 16:0, fatty acid composition of lipids extracted from S. platensis (96h): 35.4 wt %
- palmitoleic acid 16:1, fatty acid composition of lipids extracted from S. platensis (96h): 5.7 wt %
- stearic acid 18:0, fatty acid composition of lipids extracted from S. platensis (96h): 1.9 wt %
- incorporation into the lipids of S. platensis (substrate added exogenously): rapidly take up the compound
